In PubChem BioAssay (NCI):
Several values for one entry are separate records, joined by “and”; a condition that tells them apart may be missing. Equal values may be shown once.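 Interpolation was linear, between the two tested concentrations surrounding the appropriate level; five concentrations were tested over 48 hours in 96-well plates. GI50 = concentration required for 50% inhibition of growth. TGI: total growth inhibition.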

How the values were obtained:
Test in all cases: NCI-60 cell line screen, 48 h
A549 NSCLC = test system: A549 NSCLC
DU-145 prostate = test system: DU-145 prostate
NCI-H226 lung = test system: NCI-H226 lung
NCI/ADR-RES ovarian = test system: NCI/ADR-RES ovarian
PC-3 prostate = test system: PC-3 prostate
SF-295 CNS = test system: SF-295 CNS
SK-MEL-28 melanoma = test system: SK-MEL-28 melanoma
SK-MEL-5 melanoma = test system: SK-MEL-5 melanoma
SR leukemia = test system: SR leukemia
UO-31 renal = test system: UO-31 renal

Row | SMILES | GI50 (A549 NSCLC) | TGI (A549 NSCLC) | GI50 (DU-145 prostate) | TGI (DU-145 prostate) | GI50 (NCI-H226 lung) | TGI (NCI-H226 lung) | GI50 (NCI/ADR-RES ovarian) | TGI (NCI/ADR-RES ovarian) | GI50 (PC-3 prostate) | TGI (PC-3 prostate) | GI50 (SF-295 CNS) | TGI (SF-295 CNS) | GI50 (SK-MEL-28 melanoma) | TGI (SK-MEL-28 melanoma) | GI50 (SK-MEL-5 melanoma) | TGI (SK-MEL-5 melanoma) | GI50 (SR leukemia) | TGI (SR leukemia) | GI50 (UO-31 renal) | TGI (UO-31 renal)
1 | C(=C\c1nccc2c1[nH]c1ccccc12)/c1ccccc1 | 4.09 µM | > 100 µM | 3.5 µM | 12.3 µM | 4.09 µM | > 100 µM | 3.1 µM | 20.3 µM | 2820 nM | > 100 µM | 0.714 µM | 3.21 µM | 4.78 µM | 28.4 µM | 2270 nM | 8.05 µM | 1110 nM | 6.84 µM | 1580 nM | 17.4 µM
2 | COc1cc(-c2cc(/C=C3\C(=O)Nc4ccccc43)[nH]n2)cc(OC)c1OC | 3.36 µM | 13 µM | 4.35 µM | 15.1 µM | 2.43 µM | 15.5 µM | 2.33 µM | 6.67 µM | 2140 nM | 10 µM | 2.84 µM | 11.6 µM | 2.95 µM | 11.3 µM | 1570 nM | 3.45 µM | 2890 nM | 14.8 µM | 1910 nM | 12.2 µM
3 | Cc1cccc2c1O/C(=C\c1ccc([N+](=O)[O-])o1)C2=O | 2.56 µM | 7.81 µM | 0.659 µM | 2.12 µM | 1.42 µM | 3.14 µM | 2.54 µM | > 60.4 µM | 1340 nM | 4.11 µM | 2 µM | 6.46 µM | 1.53 µM | 3.05 µM | 1140 nM | 2.42 µM | 120 nM | 0.727 µM | 1090 nM | 2.49 µM
4 | C/C1=C\C/C=C(\C)[C@H]2CC(CC/C(C)=C/CC1)[C@](C)(C=O)O2 | > 100 µM | > 100 µM | 79.8 µM | > 100 µM | > 100 µM | > 100 µM | > 100 µM | > 100 µM | 88200 nM | > 100 µM | 28.9 µM | 96.2 µM | > 100 µM | > 100 µM | 77100 nM | > 100 µM | 16300 nM | 35.5 µM | > 100000 nM | > 100 µM
5 | O=C1C(=O)c2ccccc2C(O)=C1CC=C(Cl)Cl | 5.63 µM | > 78.7 µM and 129 µM and > 100 µM | 12 µM and 10.9 µM | 204 µM and > 100 µM | 8.26 µM and 24.2 µM and 14.4 µM | 39.9 µM and 135 µM and 91.1 µM | 5.15 µM and 6.97 µM | 56 µM and 174 µM and > 100 µM | 4700 nM and 2850 nM | > 48.8 µM and 134 µM and 72.9 µM | 9.87 µM and 7.86 µM | 75.5 µM and 137 µM | 9.5 µM and 16.4 µM | 60.4 µM and 161 µM and > 100 µM | 3540 nM | 22.6 µM and 43 µM and 21.6 µM | 924 nM and 4890 nM | > 91.1 µM and 156 µM and > 100 µM | 15800 nM and 7260 nM | 81.2 µM and 101 µM and > 100 µM
6 | CN1CCN(CCNc2ccc(CO)c3sc4ccccc4c(=O)c23)CC1 |  | 11.3 µM | 3.43 µM | 11.9 µM |  | 13 µM | 2.56 µM | 14.3 µM | 3500 nM | 14.5 µM |  | 17.5 µM |  | 9.02 µM |  | 9.88 µM |  | 19 µM |  | 19.6 µM
